Measurements taken from patent US20250041290A1, “USE OF N-(3-(4-(3-(DIISOBUTYLAMINO)PROPYL)PIPERAZIN-1-YL)PROPYL)-1H-BENZO[d]IMIDAZOL-2-AMINE SUCCINATE SALTS AND SOLVATES THEREOF FOR THE TREATMENT OF MOTOR NEURON DISEASES AND NEUROMUSCULAR JUNCTION DISORDERS” (ALZPROTECT, priority 2021, published 2025).

Experiments:
[1] = test system: Rat spinal cord motor neurons (MN); assay: Rat primary spinal cord motor neurons injured with glutamate, 48 h incubation with compound; assay type: cell-based; settings: glutamate 5 μM 20 min
Procedure: Rat spinal cord motor neurons (MN) were cultured as previously described by Boussicault et al., J Neurosci Res. 2020 December; 98 (12), 2435-50 and Wang et al. Hum. Mol. Genet., 2013-12-1; 22 (23), 4706-19. Pregnant female rats of 14 days gestation (Rats Wistar; Janvier Labs France) were killed using a deep anesthesia with CO2 chamber followed by cervical dislocation. Then, embryos (E14) were removed from the uterus and immediately placed in ice-cold L15 Leibovitz medium with a 2% penicillin (10,000 U/mL) and streptomycin (10 mg/mL) solution (PS) and 1% bovine serum albumin (BSA). Spinal cords were removed and placed in ice-cold medium of Leibovitz (L15). Spinal cords were treated for 20 min at 37° C. with a trypsin-Ethylenediaminetetraacetic acid (EDTA) solution at a final concentration of 0.05% trypsin and 0.02% EDTA. The dissociation was stopped by the addition of Dulbecco's modified Eagle's medium (DMEM) with 4.5 g/liter of glucose, containing DNAse I grade II (final concentration 0.5 mg/mL) and 10% fetal calf serum (FCS). Cells were mechanically dissociated by three forced passages through the tip of a 10-mL pipette. Cells were then centrifuged at 515×g for 10 min at +4° C. The supernatant was discarded, and the pellet was resuspended in a defined culture medium consisting of Neurobasal medium with a 2% solution of B27 supplement, 2 mmol/liter of L-glutamine, 2% of PS solution, and 10 ng/ml of brain-derived neurotrophic factor (BDNF). Viable cells were counted in a Neubauer cytometer, using the trypan blue exclusion test. The cells were seeded at a density of 20,000 per well in 96-well plates precoated with poly-L-lysine and cultured at 37° C. in an air (95%)-CO2 (5%) incubator. The medium was changed every 2 days.
On day 13 of culture, glutamate was added to a final concentration of 5 μM diluted in control medium in presence of the sesqui-succinate Form 1 for 20 min. After 20 min, glutamate was washed and fresh culture medium with the sesqui-succinate Form 1 was added for 48 hours.
After 15 days of culture (48h after the glutamate injury), the cell culture supernatant was collected and the spinal cord MNs were fixed by a cold solution of ethanol (95%) and acetic acid (5%) for 5 min at −20° C. for immunostaining. Cells were washed twice in PBS. Cell membranes were permeabilized and non-specific sites were blocked with a solution of PBS containing 0.1% of saponin and 1% FCS for 15 min at room temperature. Then, cells were incubated for 2 hours with: • a) mouse monoclonal antibody anti-microtubule associated protein 2 (MAP-2) at dilution of 1/400 in PBS containing 1% fetal calf serum and 0.1% of saponin. This antibody binds specifically MAP-2 present in cell bodies and neurites of all MNs. […] Cytoplasmic localization of TDP43 was investigated.
Nuclei of neurons were counterstained with the fluorescent dye (Hoechst).
For each condition, 30 pictures (representative of the whole well area) per well were automatically taken using ImageXpress (Molecular Devices) with 20× magnification. All images were taken under the same conditions (exposition time, gain and laser intensity). Analysis of different endpoints, were automatically performed using Custom Module Editor (Molecular Devices). Motoneurons (MAP-2) were distinguished from interneurons (staining MAP-2) using the following morphological criteria: a cell body diameter […] and the presence of a minimum of three neuritic processes (Ferraiuolo et al. Brain 2011:134; 2627-2641).
The endpoints were: • survival of MNs (MAP-2 staining number of MNs) • neurite network of MNs (MAP-2 staining, total neurite length expressed in μm) • cytoplasmic TDP43 (extranuclear, eTDP43) in MAP-2 positive MNs (overlapping between MAP-2 and cytoplasmic TDP-43 in μm^2). Results are expressed as the ratio of the overlapping MAP-2/TDP-43 per number of MNs.
All values are expressed as mean+/−SEM. Statistical analyses were performed using one-way ANOVA followed by PLSD Fisher test. […]

[2] = test system: SOD1^G93A Tg rat spinal cord motor neurons; assay: Primary culture of SOD1^G93A Tg rat spinal cord motor neurons injured with glutamate, 48 h incubation; assay type: cell-based; settings: glutamate 5 μM 20 min; for Protective effects of reference drugs after glutamate injury: concentration not given
Procedure: Female (Sprague Dawley, Janvier) were mated at Neuro-Sys (Gardanne, France) with Tg SOD1^G93A male rats (Taconic Bioscience, US). Pregnant females of 14 days of gestation were used for the culture. The day of the dissection, a piece of each embryo head (˜3 mm^3) was placed in a 2 mL DNase free tube with a new scalpel. The DNA was extracted with the SYBR Green Extract-N-Amp tissue PCR kit (Sigma Aldrich). Briefly, 120 μL of extraction solution was put on each piece of embryo heads. Then, they were incubated for 10 min at room temperature. At the end of this incubation period, the heads were incubated for 5 min at 95° C. Immediately after this last incubation, 100 μL of neutralizing solution was added; each DNA extract was diluted at 1/40 and stored at +4° C. until use. SOD1^G93A gene was determined using genomic fragment with human SOD1 primers (5′-[…]-3′ SEQ ID NO: 1; 5′-[…]-3′ SEQ ID NO:2). The SOD1 primers were diluted at 3 μM in sterile ultrapure water. Briefly, a mix for PCR was prepared with ultrapure water (4 μL per sample), primer at 3 μM (2 μL per sample) and Master Mix (10 μL per sample). In a PCR 96 wells plate, 16 μL of PCR mix was added in each well. 4 μL of each diluted DNA was added according to a plan deposit.
Rat spinal cord motor neurons were cultured as described by Boussicault et al., J Neurosci Res. 2020 December; 98 (12), 2435-50 and Wang et al. Hum. Mol. Genet., 2013 December 1; 22 (23), 4706-19. Pregnant female rats of 14 days of gestation were killed by cervical dislocation. The culture was carried out as described in example 1.
On day 13, culture medium was removed and cultures were exposed to the test compounds: N-(3-(4-(3-(diisobutylamino)propyl)piperazin-1-yl)propyl)-1H-benzo[d]imidazol-2-amine) sesqui-succinate salt Form 1, in comparison to Riluzole and Edaravone, and glutamate (5 μM) for 20 min at 37° C. in defined medium. After glutamate exposure, the cultures were washed with defined medium at 37° C. then placed in fresh culture medium containing the test compound, Riluzole or Edavarone for additional 48h.
• The end point evaluation was carried out as described in example 1.
(§1) The statistical analysis was carried out as described in example 1.

[3] = test system: Rat spinal cord motor neurons (MN); assay: Rat primary spinal cord motor neurons injured with glutamate, 24 h pre-incubation + 24 h post-injury incubation; assay type: cell-based
Procedure: The culture was carried out as described in example 1.
On day 12 of culture, primary motor neurons were treated with the sesqui-succinate Form 1 for 24 hours. On day 13 of culture, glutamate was added to a final concentration of 5 µM diluted in control medium in presence of the sesqui-succinate salt Form 1 for 20 min. After 20 min, glutamate was washed and fresh culture medium with the sesqui-succinate Form 1 was added for an additional 24 hours.
The end point evaluation was carried out as described in example 1.
as §1

[4] = test system: neuromuscular junctions in co-culture of human myoblasts and rat spinal cord explants; assay: Co-culture of human myoblasts and rat spinal cord explants (neuromuscular junctions) injured with glutamate; assay type: cell-based; settings: glutamate 60 μM 20 min, 48 h incubation
people with ALS = settings: injected intravenously; small subset of people with ALS; phase 3; cited from earlier work
[5] = 30 nM to 300 nM, 48 h incubation
[6] = 30 nM to 300 nM, 24 h pre-incubation + 24 h incubation

N-(3-(4-(3-(diisobutylamino)propyl)piperazin-1-yl)propyl)-1H-benzo[d]imidazol-2-amine sesqui-succinate salt [sesqui-succinate salt Form 1]
Motor neuron survival (number of MAP-2 positive MNs), mean, percentage of control ([1]; 30 nM (maximal effect), then 48 h with compound, glutamate alone mean 58%, FIG. 7A): 79%
Effect on motor neuron survival compared to the glutamate condition [1, 5]: positive and significant effect
Effect on neurite network after glutamate injury [1, 5]: able to improve the neurite network
Neurite network integrity (MAP-2 total neurite length), mean, percentage of control ([1]; 100 nM (maximal effect), 48 h incubation, glutamate alone mean 62%, FIG. 7B): 77%
Reduction of accumulation of TDP-43 in the cytoplasm (extranuclear TDP-43) ([1]; 300 nM, 48 h incubation, glutamate alone mean 135% of control, FIG. 7C): up to 17%
Effect on accumulation of TDP-43 in the cytoplasm (extranuclear TDP-43) ([1]; 30 to 300 nM, 48 h incubation): significantly reduce
Protective effect on neuronal survival, dose relation ([2]; 3 nM to 100 nM): dose-dependent
Protective effect on the distribution of TDP-43, dose relation ([2]; 3 nM to 100 nM): dose-dependent
Neuroprotection (number of MNs, neurite network, TDP-43 distribution) after glutamate injury ([2]; 3 nM to 100 nM, FIG. 9): neuroprotective
Protective effects in comparison to Riluzole and Edaravone ([2]; 100 nM): comparable to those of Riluzole or Edaravone
Effect on motor neuron survival compared to the glutamate condition [3, 6]: positive and significant effect
Effect on neurite network after glutamate damage [3, 6]: able to protect the neurite network
Reduction of abnormal distribution of TDP-43 (extranuclear TDP-43) ([3]; 30 nM to 300 nM, 24 h pre-incubation + 24 h incubation, glutamate alone mean 139% of control, FIG. 8C): up to 14%
Neurite network integrity, mean, percentage of control ([3]; 300 nM (maximal effect), 24 h pre-incubation + 24 h incubation, glutamate alone mean 60%, FIG. 8B): 81%
Motor neuron survival, mean, percentage of control ([3]; 300 nM (maximal effect), 24 h pre-incubation, glutamate 5 µM 20 min, 24 h post-injury incubation, glutamate alone mean 62%, FIG. 8A): 79%
Neuroprotective effects on neuromuscular junctions and neurite network ([4]; 300 nM): neuroprotective effects on a dose-dependent manner
Number of NMJs ([4]; 300 nM, versus glutamate, FIG. 10A): increased
Total area of NMJs ([4]; 300 nM, versus glutamate, FIG. 10B): increased
Total MNs neurite network (NFH) ([4]; 300 nM, versus glutamate, FIG. 10C): increased
Protective effects in comparison to Riluzole [4]: comparable to those of Riluzole

CC1=NN(c2ccccc2)C(=O)C1 [Edaravone, reference compound]
Decline of ALS Functional Rating Scale-Revised score compared with placebo (people with ALS): significantly smaller decline
Protective effects of reference drugs after glutamate injury ([2]; FIG. 9): protective effects

Nc1nc2ccc(OC(F)(F)F)cc2s1 [Riluzole, reference compound]
Protective effects of reference drugs after glutamate injury ([2]; FIG. 9): protective effects
Protective effects of reference drug after glutamate injury ([4]; concentration not given, FIG. 10): protective effects
